Tested on: arthritis induced rat
Assay: Arthritis induced by type II collagen immunization in rats; increasing rate of hind foot volume
Type: in vivo
Settings: for Enhancement of the alleviation effect of amino sugars on arthritis: Experiment 3, saccharide used instead of trehalose in the design of Experiment 1; for Judgment (symbol) of the effect of alleviating arthritis / Relative value of the average of increasing rate of hind foot volume when the average in the control group was regarded as 100: Experiment 1, daily until day 24, GlcN or GlcNAc 100, Ch4S 50, Trehalose 200 mg/kg body weight/day, female Lewis rats
Excerpt: Thirty-six female Lewis rats, aged 6-weeks, were divided into 12 groups consisting of three rats per group. Glucosamine, N-acetylglucosamine, chondroitin 4-sulfate, and crystalline hydrous trehalose, which were all in a reagent grade, and designated as “test compounds” hereinafter), were respectively dissolved in phosphate buffer saline (described as “PBS” hereinafter), and intraperitoneally injected alone or in an appropriate combination daily to the rats of the group Nos. 1 to 11 at the doses in the following Table 2. As a control, PBS was administrated daily to each rat of the group No. 12 at a dose of 1 ml per day by the same administration route as above. Hereinafter, the day number means a day counted from the starting day of administration. In accordance with the method of inducing arthritis by type II collagen immunization described by K. Terato, in “Biomedical research”, Vol. 3, pp. 495-505, 1982, on day 3, 800 μg/head of a type II collagen from bovine in a reagent grade along with Freund's incomplete adjuvant was administered to the dorsal subcutaneous; and on day 10, a fresh preparation of the same collagen and adjuvant as used above were administered at a dose of about 1/10 of that of on day 3. Test compounds were administered to the rats daily until day 24.
During the term of the above experiment, on day 3 just before the administration of collagen and on day 24 just after the administration of the test compounds, both hind foot volumes of every rat were measured according to the method described by D. T. Walz in “Journal of Experimental Therapy”, Vol. 152, pp. 116-121, 1971. Increasing rate (%) of the total hind foot volume of each rat was calculated by substituting the data for the Formula 1 below. Increasing rate of hind foot volume (%)=[{(Measured volume on day 24)−(Measured volume on day 3)}/(Measured volume on day 3)]×100 Formula 1
The effect of alleviating arthritis for each test compound was judged on the basis of the criterion described in the following Table 1, after calculating the averages of increased rates of hind foot volumes in the rats of the group Nos. 1 to 11 and the relative values of the above averages when the average in the control group was regarded as 100. The results are in Table 2
As a result, the effect of glucosamine or N-acetylglucosamine with trehalose was judged as high (symbol “+”) even with the tested minimum amount of 5 mg/kg body weight/day. […]

| Compound | Enhancement of the alleviation effect of amino sugars on arthritis | Judgment (symbol) of the effect of alleviating arthritis (intraperitoneal) | Relative value of the average of increasing rate of hind foot volume when the average in the control group was regarded as 100 (intraperitoneal) | also measured |
| --- | --- | --- | --- | --- |
| OC[C@H]1O[C@H](O[C@H]2[C@H](O)[C@@H](O)C(O)O[C@@H]2CO)[C@H](O)[C@@H](O)[C@@H]1O (mixture of isomers) [maltose] | no enhanced effect | – | – | – |
| N[C@H]1C(O)O[C@H](CO)[C@@H](O)[C@@H]1O (some centres unmarked) [GlcN, glucosamine] | – | − (67 or more) | 88 | – |
| CC(=O)N[C@H]1C(O)O[C@H](CO)[C@@H](O)[C@@H]1O (some centres unmarked) [GlcNAc, N-acetylglucosamine] | – | − (67 or more) | 89 | – |
| OC[C@H]1O[C@H](O[C@H]2O[C@H](CO)[C@@H](O)[C@H](O)[C@H]2O)[C@H](O)[C@@H](O)[C@@H]1O [Trehalose, trehalose] | – | − (67 or more) | 98 | Increasing rate of hind foot volume compared with the control group (Experiment 1, group No. 6, trehalose alone 200 mg/kg body weight/day, intraperitoneal): No difference |
| COc1ccc2c(c1)c(CC(=O)O)c(C)n2C(=O)c1ccc(Cl)cc1 [indomethacin] | – | – | – | Increasing rate of hind foot volume (3 mg/kg body weight, some rats, data not shown): < 20% |
| OC[C@@H](O)[C@@H](O[C@H]1O[C@H](CO)[C@@H](O)[C@H](O)[C@H]1O)[C@H](O)[C@@H](O)CO [maltitol] | no enhanced effect | – | – | – |
| OC[C@H]1O[C@@H](O[C@H]2O[C@H](CO)[C@@H](O)[C@H](O)[C@H]2O)[C@H](O)[C@@H](O)[C@@H]1O [neotrehalose] | no enhanced effect | – | – | – |
| OC[C@@H](O)[C@@H](O)[C@H](O)[C@@H](O)CO [sorbitol] | no enhanced effect | – | – | – |
| chondroitin 4-sulfate [Ch4S] | – | − (67 or more) | 95 | – |

Source: patent US20050277617A1, “Drugs against articular failure” (KABUSHIKI KAISHA HAYASHIBARA SEIBUTSU KAGAKU KENKYUJO, priority 2000, published 2005)
